Earlier results, collected in patent US4703106A, “Novel polypeptide and process for producing the same” (Mitsubishi Petrochemical Co., Ltd., priority 1984, dated 1987).
Positions of bridges follow the written chain, without caps; N, C: chain ends. No end group written: not given here.

Test system: Ca^2+ concentration in blood
Conditions: published as Japanese Provisional Patent Publication No. 123500/1985

chicken CT: calcitonin extracted and purified from the ultimobranchial glands of chickens, formula (I) (CASLSTCVLGKLSQELHKLQTYPRTDVGAGTP-NH2; disulfide 1-7; ends not checked; UniProt P07660 82-113, looked up)
biological activity relative to CT's of cyclostomata and fish: equal to or higher than CT's of cyclostomata and fish
